Experiments:
CSF-1R = biological target: T1, CSF-1R (Homo sapiens, UniProt P07333); assay: KINOMEscan competition binding assay, CSF-1R; settings: compound at 100 nM; lower number indicates stronger hit
T1 construct: purchased KINOMEscan service (Ambit Biosciences, San Diego)
Procedure: (§1) A standard competition binding assay can be used to test the ability of a compound of this invention on competing with both intended and unintended kinases in vitro. To screen a compound against a large number of human kinases, a competition binding assay with an active-site dependent binding technology was performed by KINOMEscan service (Ambit Biosciences, San Diego, Cal., USA). Three components were combined in this assay—DNA-tagged kinase, immobilized ligand, and the test compound. The ability of the test compound to compete with the immobilized ligand was measured by quantitative PCR of the DNA of the DNA tag. A number of the compounds of this invention were screened at the concentration of 100 nM by this binding assay, and the results were reported as “% Ctrl,” and the lower number indicates stronger “hit” in this matrix.

EPHA2 = biological target: T2, EPHA2 (Homo sapiens, UniProt P29317); assay: KINOMEscan competition binding assay, EPHA2; settings: compound at 100 nM; lower number indicates stronger hit
T2 construct: purchased KINOMEscan service (Ambit Biosciences, San Diego)
T2 sequence (P29317 24-976): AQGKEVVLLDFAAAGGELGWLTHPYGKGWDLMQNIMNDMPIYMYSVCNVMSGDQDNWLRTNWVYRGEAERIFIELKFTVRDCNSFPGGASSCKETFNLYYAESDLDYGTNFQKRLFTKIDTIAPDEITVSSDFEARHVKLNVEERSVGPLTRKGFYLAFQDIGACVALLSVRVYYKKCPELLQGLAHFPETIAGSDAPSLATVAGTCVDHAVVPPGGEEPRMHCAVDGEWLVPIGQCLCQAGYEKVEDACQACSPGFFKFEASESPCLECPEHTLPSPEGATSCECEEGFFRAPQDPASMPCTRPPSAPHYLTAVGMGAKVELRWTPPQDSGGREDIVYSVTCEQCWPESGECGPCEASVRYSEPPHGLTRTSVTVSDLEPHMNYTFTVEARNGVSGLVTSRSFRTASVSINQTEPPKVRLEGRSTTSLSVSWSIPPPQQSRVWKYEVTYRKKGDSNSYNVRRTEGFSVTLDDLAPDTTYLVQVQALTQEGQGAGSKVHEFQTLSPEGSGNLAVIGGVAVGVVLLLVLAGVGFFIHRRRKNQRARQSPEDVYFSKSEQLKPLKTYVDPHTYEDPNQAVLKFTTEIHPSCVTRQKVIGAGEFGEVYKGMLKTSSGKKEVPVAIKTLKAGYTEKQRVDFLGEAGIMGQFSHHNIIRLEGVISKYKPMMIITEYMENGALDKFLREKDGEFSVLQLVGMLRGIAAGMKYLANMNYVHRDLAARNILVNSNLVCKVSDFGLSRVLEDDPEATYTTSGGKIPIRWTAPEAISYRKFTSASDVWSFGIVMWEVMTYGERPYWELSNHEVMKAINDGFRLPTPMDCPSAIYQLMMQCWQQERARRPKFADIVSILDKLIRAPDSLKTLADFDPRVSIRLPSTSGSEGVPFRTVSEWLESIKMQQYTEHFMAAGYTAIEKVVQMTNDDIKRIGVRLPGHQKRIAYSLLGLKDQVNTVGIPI
Procedure: as §1

HT-29 human colon cancer = assay: In vivo anti-tumor efficacy, HT-29 xenograft; settings: Colon cancer HT-29, nu/nu Balb/c mice, 50 mg/kg oral once per day, n = 2 × 3
Procedure: Female (nu/nu) Balb/c athymic mice at 4-6 weeks of age were injected subcutaneously (s.c.) with MDA-MB-231 human breast cancer cells, A549 human non-small cell lung cancer cells, U87-MG human glioblastoma cells, PC-3 human prostate cancer cells, HT-29 human colon cancer, BEL-7404 human hepatocellular carcinoma, or MKN-45 human gastric cancer cells (ATCC, 5×10^6 cells suspended in 100 μl DMEM medium). Treatment was initiated after the tumor mass grown from s.c. implanted tumor cells reached a median volume of 200-400 mm^3. Mice were randomized into groups with three in each group for small-sample efficacy tests such that the median tumor volume is nearly equal among all groups. […] Tumor volumes were assessed at least twice weekly by caliper measurement from the start of treatment. Tumor volume was calculated using the formula ½×L×W^2 (L: length of tumor's long axis, W: length of tumor's short axis). […] The efficacy of compounds in reducing tumor growth was assessed by the index Tumor Growth Inhibition (TGI). TGI for a given treatment period was calculated using the group mean tumor volumes according to the formula: TGI=100×(VVehicle—group−VTreatment—group)÷VVehicle—group wherein VVehicle—group represents the mean tumor volume for the group treated with vehicle and VTreatment—group represents the mean tumor volume of the group treated with a compound.

T1 sequence (P07333 20-972): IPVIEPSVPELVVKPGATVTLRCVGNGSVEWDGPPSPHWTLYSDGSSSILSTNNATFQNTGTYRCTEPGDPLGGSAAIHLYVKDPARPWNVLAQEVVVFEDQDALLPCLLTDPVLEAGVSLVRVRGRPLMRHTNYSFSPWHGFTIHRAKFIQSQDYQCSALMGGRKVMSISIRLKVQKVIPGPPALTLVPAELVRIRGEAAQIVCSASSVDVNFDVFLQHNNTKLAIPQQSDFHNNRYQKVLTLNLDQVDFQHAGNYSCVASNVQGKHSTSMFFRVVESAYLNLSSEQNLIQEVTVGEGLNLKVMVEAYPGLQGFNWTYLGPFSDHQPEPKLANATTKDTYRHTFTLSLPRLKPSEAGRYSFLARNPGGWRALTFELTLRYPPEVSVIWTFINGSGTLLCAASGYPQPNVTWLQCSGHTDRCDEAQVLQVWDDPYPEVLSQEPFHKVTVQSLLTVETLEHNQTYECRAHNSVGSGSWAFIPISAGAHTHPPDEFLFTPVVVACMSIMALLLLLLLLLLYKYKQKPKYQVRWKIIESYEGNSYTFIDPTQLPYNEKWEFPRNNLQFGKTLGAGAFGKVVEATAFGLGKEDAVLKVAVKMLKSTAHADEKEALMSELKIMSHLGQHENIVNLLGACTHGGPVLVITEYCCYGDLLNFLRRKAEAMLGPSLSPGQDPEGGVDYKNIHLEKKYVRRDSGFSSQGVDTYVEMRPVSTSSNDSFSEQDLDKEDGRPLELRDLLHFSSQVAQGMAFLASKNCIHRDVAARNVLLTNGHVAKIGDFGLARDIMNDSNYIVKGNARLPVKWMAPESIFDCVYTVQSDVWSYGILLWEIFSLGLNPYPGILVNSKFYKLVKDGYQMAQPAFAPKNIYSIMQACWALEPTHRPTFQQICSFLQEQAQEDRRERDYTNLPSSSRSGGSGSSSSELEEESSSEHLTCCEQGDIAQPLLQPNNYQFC

Which results are given for Cl.O=C(Nc1cc(Cl)ccc1F)Nc1cccc2c1ccn2Cc1ccnc2[nH]ccc12 [Example 56, 1-(2-Fluoro-5-chlorophenyl)-3-[1-(1H-pyrrolo[2,3-b]pyridin-4-ylmethyl)-1H-indol-4-yl]urea hydrochloride]?
CSF-1R % Ctrl (CSF-1R): 3.4 % Ctrl; EPHA2 % Ctrl (EPHA2): 12 % Ctrl; Tumor Growth Inhibition (TGI) (HT-29 human colon cancer): A (the TGI is greater or equal to 50%)

Source: US8648086B2, “5,6-bicyclic heteroaryl-containing urea compounds as kinase inhibitors” (Ascepion Pharmaceuticals, Inc., priority 2009, dated 2014)
